Key:
[1] = in vitro; compared to A43D (A43D compared to bevirimat)
in vitro = conditions: human, microsomes
NL4-3 V370A = conditions: V370A versus NL4-3, single cycle infection assay
[2] = ref not given; cited from earlier work

SMILES | microsomal / metabolic stability in words [1] | microsomal CLint (in vitro) [µL/min/mg] | times less potent against the resistant variant (NL4-3 V370A) [times] | half-life in vivo [2]
C=C(C)[C@@H]1CC[C@]2(C(=O)NCCCCCCCCC(=O)N[C@@H](CCC(N)=O)C(=O)OCc3ccccc3)CC[C@]3(C)[C@H](CC[C@@H]4[C@@]5(C)CC[C@H](O)C(C)(C)[C@@H]5CC[C@]43C)[C@@H]12 [Compound 15] | improved metabolic stability | 169 | – | –
COC(=O)[C@H](CCC(N)=O)NC(=O)CCCCCCCCNC(=O)[C@]12CC[C@@H](C(C)C)[C@@H]1[C@H]1CC[C@@H]3[C@@]4(C)CC[C@H](O)C(C)(C)[C@@H]4CC[C@@]3(C)[C@]1(C)CC2 [Compound 38] | improved metabolic stability | 219 | – | –
C=C(C)[C@@H]1CC[C@]2(C(=O)NCCCCCCCCC(=O)N[C@@H](CCC(N)=O)C(=O)OC)CC[C@]3(C)[C@H](CC[C@@H]4[C@@]5(C)CC[C@H](O)C(C)(C)[C@@H]5CC[C@]43C)[C@@H]12 [Compound 13] | improved metabolic stability | 230 | – | –
C=C(C)[C@@H]1CC[C@]2(C(=O)NCCCCCCCNC(C)=O)CC[C@]3(C)[C@H](CC[C@@H]4[C@@]5(C)CC[C@H](O)C(C)(C)[C@@H]5CC[C@]43C)[C@@H]12 [Compound 1] | poor | 272 | – | –
Cc1cn([C@H]2C[C@H](N=[N+]=[N-])[C@@H](CO)O2)c(=O)[nH]c1=O [AZT, 3′-azido-3′-deoxythymidine] | – | – | 2 | –
CC(C)[C@@H]1CC[C@]2(C(=O)NCCCCCCCCC(=O)N[C@@H](CCC(N)=O)C(=O)O)CC[C@]3(C)[C@H](CC[C@@H]4[C@@]5(C)CC[C@H](O)C(C)(C)[C@@H]5CC[C@]43C)[C@@H]12 [Compound 39] | – | 280 | – | –
CC(C)(C)c1ccc(C(O)CCCN2CCC(C(O)(c3ccccc3)c3ccccc3)CC2)cc1 (stereo not drawn) [Terfenadine] | – | – | – | around 3.5 h
C=C(C)[C@@H]1CC[C@]2(C(=O)NCCCCCCCNC(=O)[C@H](CCC(N)=O)NC(=O)OC(C)(C)C)CC[C@]3(C)[C@H](CC[C@@H]4[C@@]5(C)CC[C@H](O)C(C)(C)[C@@H]5CC[C@]43C)[C@@H]12 [Compound 2] | – | 366 | – | –
